The test system of experiment [1] is NCI60 tumor cell line panel. Also on record: method as in PMID 31894828. The settings on record: against 53 human tumor cell lines; cited from earlier work.
Experiment [2] deals with NCI-ADR/RES. Also on record: method as in PMID 31894828. To be noted: MDR cell line, high P-gp; read-out: growth inhibition (GI50) NCI/ADR-RES; cited from earlier work.
For experiment [3], the system named is colon cell line panel. In words: NCI60 five-dose GI50, colon cell line panel. The experiment is classed as cell-based. To be noted: Homo sapiens, read-out: GI50 range colon cell line panel. The text has this:
The concentration−response curve generated enables the determination of three criteria, GI50 (drug concentration at which 50% of cell growth is inhibited), total growth inhibition (TGI) and LC50 (drug concentration at which 50% of tumor cells are killed) which can be used to compare effectiveness against any compound tested in the screen since its inception.
S2.1 NCI Screening Assay Experimental details
NCI Screening Assay Experimental: Cancer cell growth assays (NCI60 screening) 5,6 One-dose study: Tested compounds were initially solubilised in DMSO, diluted into RPMI 1640 and 5% fetal bovine serum/L-glutamine, and added to 96-well plates containing cell lines previously cultured for 24 h. […] The dye was then resolubilised in Tris buffer, and the colorimetric absorbance was measured (515 nm). Growth inhibition was measured relative to the response generated from proliferating cells cultured under identical conditions for 48 h. […]
Five-dose study: Serial 5 × 10-fold dilution from an initial DMSO stock solution was performed, prior to incubation at each individual concentration (10 nM, 100 nM, 1 μM, 10 μM and 100 μM). Using seven absorbance measurements (time zero (Tz), control growth (C), and test growth in the presence of drug at the five concentration levels (Ti)), the percentage growth was calculated at each of the drug concentrations levels. […]

Experiment [4] relates to NCI-H460 cells. Description: Annexin V-FITC/PI cell death assay. The experiment is classed as cell-based, human. To be noted: 48 h; 0.35 and 0.7 μM. The protocol:
The effect of compound 25 on the levels of apoptosis and necrosis was evaluated using annexin V-FITC/PI labeling followed by flow cytometry analysis.
Figure 9 Effect of compound 25 on the levels of death of NCI-H460 cells, analyzed by flow cytometry (annexin V−PI assay). […] Results are the mean ± SEM from at least 3 independent experiments. * p ≤ 0.05, when comparing DMSO vs compound treatment.
Analysis of cell death was performed using the Annexin V-FITC apoptosis detection kit (eBioscience, Thermo Fisher Scientific). […] Exposure to 5% ethanol for 1 h was used as a positive control for necrosis. Collected cells were resuspended in the binding buffer solution and incubated with the Annexin V-FITC conjugate for 10 min at RT, in the dark. Afterward, PI was added, and samples were analyzed using the BD Accuri C6 flow cytometer, where at least 10 000 events per sample were plotted. Data analysis was carried out using the BD Accuri C6 Software.

The test system of experiment [5] is NCI-H460/R spheroids. In words: Cell Titer-Glo 3D spheroid viability assay. The experiment is classed as cell-based, human. To be noted: 48 h; 25 at 0.35 and 0.7 μM; etoposide 2 μM.
Protocol: Results are presented as the % of luciferase luminescence relative to the “blank” cells (medium).
Spheroid formation was conducted in 12-series agarose 3D Petri Dish micromolds (MicroTissues Technology, MicroTissues Inc., Sigma-Aldrich). The agarose micromolds were prepared using 1% agarose in a 0.9% NaCl solution and then placed in 12-well plates and equilibrated with RPMI supplemented with 10% FBS for at least 2 h before cell seeding. Cell suspensions corresponding to 500 cells per spheroid of the NSCLC cell lines (NCI-H460 and NCI-H460/R), and 1000 cells per spheroid of the colorectal cancer cell lines (DLD1 and DLD1-TxR) were seeded in the corresponding micromolds. […] Spheroid formation was monitored with the Leica DMi1 microscope. […] At the end of the treatment, images from at least 8 different spheroids per condition were captured on the Leica Dmi1 microscope, and posteriorly analyzed with the automated open-source software AnaSP.[82] Spheroid parameters, such as equivalent diameter, circularity, and compactness, were calculated.
Spheroid viability was determined through the luminescence-based Cell Titer-Glo 3D cell viability assay (Promega). […] The plate was then incubated in the dark for 5 min with agitation and allowed to rest for 25 min before luminescence measurement. Luminescence was quantified using the microplate reader Synergy MX coupled with the GEN5 software. […]
In experiment [6] the test system is NCI-H322. Description: NCI60 five-dose GI50 (NCI data). To be noted: Homo sapiens, SI Table S20. The experiment is classed as cell-based. In a few lines:
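Cells pre-cultured 24 h were exposed for 48 h to five 10-fold concentrations (10 nM–100 μM) in RPMI 1640 with 5% FBS/L-glutamine. Growth was read by sulforhodamine B protein staining at 515 nm; GI50 is the concentration giving [(Ti − Tz)/(C − Tz)] × 100 = 50.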

The source of these data is paper PMC11345829, “Discovery of Potent Isoquinolinequinone N-Oxides to Overcome Cancer Multidrug Resistance” (Journal of Medicinal Chemistry, 2024).

On to `COC(=O)c1c2c(c(C)[n+]([O-])c1C)C(=O)C=C(NCc1ccccc1)C2=O` [Compound 2], for which the GI50 in experiment [1] is 910 nM; in experiment [2], 535 nM.

On to `COC(=O)c1c2c(c[n+]([O-])c1C)C(=O)C=C(NCc1ccccc1)C2=O` [Compound 25], for which the GI50 in experiment [3] was 157 to 247 nM; in experiment [6] it was 174 nM. Moreover, in experiment [4], the “percentage of dead cells (apoptosis/necrosis)” value is listed as “did not cause an increase in the percentage of dead cells”. Further, the “viability of NCI-H460/R spheroids” value in experiment [5] is listed as “significant decrease in the viability of the spheroids”.
